Experimental data published in US20050101674A1, “PPMP as a ceramide catabolism inhibitor for cancer treatment” (priority 2003, published 2005).
Where two headings read alike, the source gives them in different places.

Columns and labels:
[1] = system: ALL cell lines; experiment: Glucosylceramide and ceramide in ALL cell lines; conditions: ALL cell lines examined
[2] = system: NALM-6; experiment: DIMSCAN cytotoxicity, ALL cell line NALM-6; assay type: cell-based; conditions: NALM-6, 4-HPR+PPMP 1:1 molar ratio, +96 hours
Excerpt: (§1) In the following examples, the DIMSCAN assay is a cell survival assay, not merely an apoptosis assay, and therefore reflects cancer cell killing due to both apoptosis and necrosis. DIMSCAN correlates directly with more traditional clonogenic assays. Moreover, DIMSCAN drug resistance profiles of cell lines correlate with prior patient therapy. DIMSCAN has successfully predicted clinical activity in high-risk neuroblastoma patients for the following new agents: 13-cis-retinoic acid, BSO+L-PAM, and fenretinide. Cytotoxicity assays are performed in 96 well microplates using a semi automated Digital Image Microscopy (DIMSCAN) system that has a dynamic range of greater than 4-5 logs of cell kill. Briefly, following incubation with study drugs, fluorescein diacetate [10 μg/ml (a vital stain)] is added to the microplate and incubated for twenty minutes. Eosin-Y (800 μg/ml) is then added to quench background fluorescence in the medium and non-viable cells. The plates are then read on an inverted microscope with the relative fluorescence of each well determined by the video imaging system software designed for the DIMSCAN system. We have done comparison studies and have shown that the relative fluorescent values obtained by DIMSCAN correlate to cell density (standard counts by trypan blue exclusion) and clonogenicity assays. […]

[3] = system: MOLT-4; experiment: DIMSCAN cytotoxicity, ALL cell line MOLT-4; assay type: cell-based; conditions: MOLT-4, 4-HPR+PPMP 1:1 molar ratio, +96 hours
Excerpt: as §1

[4] = system: CEM; experiment: DIMSCAN cytotoxicity, ALL cell line CEM; assay type: cell-based; conditions: 4-HPR+PPMP 1:1 molar ratio, +96 hours
Excerpt: as §1

[5] = system: NALL-1; experiment: DIMSCAN cytotoxicity, ALL cell line NALL-1; assay type: cell-based; conditions: 4-HPR+PPMP 1:1, +96 hours
Excerpt: (§2) In the following examples, the DIMSCAN assay is a cell survival assay, not merely an apoptosis assay, and therefore reflects cancer cell killing due to both apoptosis and necrosis. DIMSCAN correlates directly with more traditional clonogenic assays. Moreover, DIMSCAN drug resistance profiles of cell lines correlate with prior patient therapy. DIMSCAN has successfully predicted clinical activity in high-risk neuroblastoma patients for the following new agents: 13-cis-retinoic acid, BSO+L-PAM, and fenretinide. Cytotoxicity assays are performed in 96 well microplates using a semi automated Digital Image Microscopy (DIMSCAN) system that has a dynamic range of greater than 4-5 logs of cell kill. Briefly, following incubation with study drugs, fluorescein diacetate [10 μg/ml (a vital stain)] is added to the microplate and incubated for twenty minutes. Eosin-Y (800 μg/ml) is then added to quench background fluorescence in the medium and non-viable cells. The plates are then read on an inverted microscope with the relative fluorescence of each well determined by the video imaging system software designed for the DIMSCAN system. We have done comparison studies and have shown that the relative fluorescent values obtained by DIMSCAN correlate to cell density (standard counts by trypan blue exclusion) and clonogenicity assays. The present invention is explained in greater detail in the following non-limiting examples.
(§3) Assayed by DIMSCAN at +96 hours. •=4-HPR; ▪=PPMP; □=4-HPR+PPMP; (1:1 molar ratio).

[6] = system: SK-N-RA neuroblastoma cells; experiment: DIMSCAN cytotoxicity assay in SK-N-RA cells; assay type: cell-based; conditions: combined with 4-HPR, +96 h
Excerpt: as §1, with “system.” for “system. We have done comparison studies and have shown that the relative fluorescent values obtained by DIMSCAN correlate to cell density (standard counts by trypan blue exclusion) and clonogenicity assays.”
Survival fraction was measured using a digital imaging fluorescence-based microscopy assay (DIMSCAN) with approximately 5 log sensitivity. […]

[7] = system: MOLT-3; experiment: DIMSCAN cytotoxicity, ALL cell line MOLT-3; assay type: cell-based; conditions: MOLT-3, 4-HPR+PPMP 1:1 molar ratio, +96 hours
Excerpt: as §1

[8] = system: intact cells; conditions: in intact cells; cited from earlier work
[9] = system: SMS-SB; experiment: DIMSCAN cytotoxicity, ALL cell line SMS-SB; assay type: cell-based; conditions: 4-HPR+PPMP 1:1, +96 hours
Excerpt: as §2, §3

[10] = system: SK-N-RA neuroblastoma cells; experiment: Ceramide and glucosylceramide levels by [3H]-palmitic acid labeling and thin-layer chromatography, SK-N-RA; assay type: cell-based; conditions: for 4-HPR-induced ceramide level / 4-HPR-induced glucosylceramide level: with 4-HPR 10 μM; for 4-HPR-induced glycosylceramide increase: FIG. 9 right panel
Protocol: Assays were performed at +24 h.
SK-N-RA neuroblastoma cells were exposed to drugs at 10 μM concentrations for the time indicated.

[11] = system: six pediatric ALL cell lines; experiment: 4-HPR and D,L-threo-PPMP cytotoxicity in ALL cell line panel; assay type: cell-based
[12] = system: solid tumor and ALL cell lines; experiment: Effect of de novo ceramide synthesis inhibitors on 4-HPR-induced ceramide; assay type: cell-based; conditions: in vitro
Excerpt: (§4) We have determined in solid tumor and ALL cell lines in vitro, that the ceramide increased by 4-HPR treatment was derived from de novo synthesis.

[13] = system: neuroblastoma cell lines; experiment: Toxicity of de novo ceramide synthesis inhibitors to neuroblastoma cell lines; assay type: cell-based
[14] = system: MCF-7/tet breast cancer cells
Protocol: MCF-7/tet breast cancer cells exposed to ethanol (controls), 4-HPR(H) or 4-HPR+safingol (3:1 ratio)(H+S), without or with preincubation with L-cycloserine (2 mM)(+C) and assayed by DIMSCAN assay at +96 hrs. 4-HPR (•); 4-HPR/L-cycloserine (O); 4-HPR/safingol (3:1)(▾); 4-HPR/safingol/L-cycloserine (∇); L-cycloserine (2 mM) (□).

[15] = system: human neuroblastoma murine xenograft; experiment: Human neuroblastoma murine xenograft models; assay type: in vivo; conditions: combined with 4-HPR
[16] = rodents, x 10 days; cited from earlier work
[17] = in vivo; cited from earlier work
[18] = system: Ehrlich ascites tumor cells xenografts; conditions: in vivo; cited from earlier work
[19] = system: PC-3 prostate cancer cells; experiment: DIMSCAN cytotoxicity assay in PC-3 cells; assay type: cell-based; conditions: PC-3, combined with 4-HPR, +96 h
Excerpt: as §1

[20] = system: PC-3 prostate cancer cells; experiment: Ceramide by [3H]-palmitic acid labeling and thin-layer chromatography, PC-3; conditions: PC-3, drug 10 μM, +24 h
Protocol: Lipids were assayed by labeling with [^3H]-palmitic acid and thin-layer chromatography at +24 h. […] Synergy assayed by Combination Index (C.I.): synergy, C.I.<1; additive, C.I.=1; antagonism, C.I.>1. Statistical analysis is by student's t-test.

[21] = system: cell lines of neuroblastoma, PNET/Ewing's sarcoma, breast and lung cancer; experiment: 4-HPR ceramide increase in tumor cell lines; assay type: cell-based
Excerpt: (§5) 4-HPR has been reported to increase Reactive Oxygen Species (ROS) in certain, but not all, solid tumor cell lines and leukemia cell lines in vitro as a mechanism of cytotoxicity. […] We, therefore, have explored alternative mechanisms of 4-HPR cytotoxicity.

[22] = system: ceramide synthase; experiment: Direct assay of enzymatic activity, ceramide synthase; assay type: biochemical
Excerpt: as §4

[23] = system: normal fibroblasts, peripheral blood mononuclear cells, EBV-immortalized lymphoid cell line; experiment: 4-HPR ceramide in normal and non-transformed cells; assay type: cell-based; conditions: in vitro
Excerpt: Accordingly, the ability of 4-HPR to increase ceramide by de novo synthesis is most likely a malignancy (transformed phenotype)-specific event. Further, high-dose 4-HPR will have a favorable therapeutic index in vivo. Moreover, second agents that inhibit ceramide catabolism will also have a favorable therapeutic index in combination with 4-HPR, as normal tissues will not increase ceramide in response to 4-HPR.

[24] = system: serine palmitoyltransferase; experiment: Direct assay of enzymatic activity, serine palmitoyltransferase; assay type: biochemical
Excerpt: as §4

[25] = system: two neuroblastoma cell lines; experiment: Reactive oxygen species in neuroblastoma cell lines; assay type: cell-based
Excerpt: as §5

[26] = Plasma levels after intravenous formulations of 4-HPR; assay type: in vivo
[27] = pediatrics, oral, cited from earlier work
[28] = adults, high-dose oral; cited from earlier work
[29] = system: normal fibroblasts, bone marrow myeloid progenitors, peripheral blood mononuclear cells, EBV-immortalized lymphoblastoid cell line; experiment: 4-HPR cytotoxicity in normal and non-malignant cells; assay type: cell-based; conditions: doses cytotoxic to cancer cell lines in vitro
Excerpt: Having established the potential of high-dose 4-HPR to treat resistant neuroblastoma, in order to investigate the therapeutic index of 4-HPR, we examined the cytotoxicity of 4-HPR in normal and non-malignant cell lines in vitro. […] Accordingly, 4-HPR cytotoxicity is most likely a malignancy-specific event, and high-dose 4-HPR may have an acceptable therapeutic index in vivo.

[30] = Continuous venous infusion (c.i.v.) of 4-HPR in rats; assay type: in vivo
Excerpt: Utilizing intravenous formulations, we have directly tested continuous venous infusion (c.i.v.) in rats. […] Accordingly, the anti-tumor activity of 4-HPR will be increased by other agents which modulate the metabolism of ceramide, such as inhibitors of glucosylceramide synthase and 1-O-acylceramide synthase.

[31] = low-dose 4-HPR; cited from earlier work
[32] = system: variety of cancer cell lines; conditions: cancer cell lines in vitro; cited from earlier work

Molecule: CCCCCCCCCCCCCCCC(=O)NC(CN1CCOCC1)C(O)c1ccccc1 [D,L-threo-PPMP, D,L-threo-(1-phenyl-2-hexadecanoylamino-3-morpholino-1-propanol)]
- ceramide [1]: increased ceramide
- glucosylceramide formation [1]: decreased glucosylceramide formation
- Combination Index (C.I.) [2]: < 1
- Combination Index (C.I.) [3]: < 1
- Combination Index (C.I.) [4]: 1
- Combination Index (C.I.) ([5]; NALL-1, 3 μM): > 1
- Combination Index (C.I.) ([5]; NALL-1, 6 μM): 1
- Combination Index (C.I.) ([5]; NALL-1, 9 μM): < 1
- synergy of 4-HPR cytotoxicity (in words) [6]: more potently
- Combination Index (C.I.) [7]: < 1
- activity relative to PDMP [8]: 10-20 times
- Combination Index (C.I.) ([9]; 3 μM): > 1
- Combination Index (C.I.) ([9]; 6 μM): > 1
- Combination Index (C.I.) ([9]; 9 μM): 1
- 4-HPR-induced ceramide level ([10]; +24 h): even more strongly increased
- 4-HPR-induced glucosylceramide level ([10]; +24 h): prevented glucosylceramide formation
- number of ALL cell lines in which 4-HPR cytotoxicity was synergized ([11]; pediatric ALL cell lines): four of six

Molecule: N[C@H]1CONC1=O [L-cycloserine]
- effect on ceramide increase caused by 4-HPR treatment [12]: prevented the increase of ceramide
- toxicity as single agents [13]: proved toxic of themselves
- effect on 4-HPR-induced ceramide [14]: prevented ceramide increase

Molecule: CCCCCCCCCCCCCCC[C@H](O)[C@@H](N)CO [safingol, L-threo-dihydrosphingosine]
- effect on anti-tumor activity of 4-HPR [15]: significantly increase the anti-tumor activity of 4-HPR

Molecule: CCCCCCCCCCCCCCCC(=O)NC(CN1CCOCC1)C(O)c1ccccc1 [D,L-erythro-PPMP]
- 4-HPR-induced ceramide level ([10]; +24 h): further increased
- 4-HPR-induced glucosylceramide level ([10]; +24 h): did not affect

Molecule: CCCCCCCCCC(=O)NC(CN1CCOCC1)C(O)c1ccccc1 (stereo not drawn) [PDMP, 1-phenyl-2-[decanoylamino]-3; morpholino-1-propanol]
- well tolerated dose [16]: ≤ 120 mg/kg/day
- half-life [17]: approximately 1 hour
- anti-tumor effect [18]: cures

Molecule: CCCCCCCCCCCCCCCC(=O)NC(CN1CCOCC1)C(O)c1ccccc1 (single isomer, unassigned) [D-threo-PPMP, D-threo-stereoisomer of 1-phenyl-2-palmitoylamino-3-morpholino-1-propanol]
- synergy of 4-HPR cytotoxicity (in words) [6]: synergizes 4-HPR cytotoxicity more potently than does L-threo-PPMP
- Combination Index (C.I.) of cytotoxic synergy with 4-HPR [19]: < 1
- ceramide in 4-HPR-treated cells [20]: increased ceramide
- 4-HPR-induced ceramide ([10]; drugs at 10 μM, FIG. 9 left panel, preliminary): increased 4-HPR-induced ceramide more than did L-threo-PPMP
- 4-HPR-induced glycosylceramide increase ([10]; drugs at 10 μM, preliminary): prevented

Molecule: fumonisin B
- effect on ceramide increase caused by 4-HPR treatment [12]: prevented the increase of ceramide
- toxicity as single agents [13]: proved toxic of themselves

Molecule: CCCCCCCCCCCCCCCC(=O)N[C@@H](CN1CCOCC1)[C@@H](O)c1ccccc1 [L-threo-PPMP]
- 4-HPR-induced glycosylceramide increase ([10]; drugs at 10 μM, preliminary): did not

Molecule: CC1=C(/C=C/C(C)=C/C=C/C(C)=C/C(=O)Nc2ccc(O)cc2)C(C)(C)CCC1 [4-HPR, N-(4-hydroxyphenyl)retinamide]
- increase of ceramide ([21]; dose- and time-dependent, in vitro, 'up to'): up to 13 fold
- time at which ceramide increase began ([21]; post exposure): less than 2 hrs
- ceramide synthase activity [22]: stimulated the activities
- ceramide in normal and non-transformed cells [23]: only minimally increased ceramide
- serine palmitoyltransferase activity [24]: stimulated the activities
- Reactive Oxygen Species (ROS) [25]: increased ROS
- systemic toxicity ([26]; dog, in vivo, iv): minimal systemic toxicity
- 4-HPR plasma levels ([26]; intravenous formulations, rodent and canine models): 50 to 150 µM
- maximally tolerated dose (MTD) ([27]; 7 days every 3 weeks): 2475 mg/m^2/day
- systemic toxicity ([27]; at MTD): minimal systemic toxicity
- ceramide level ([10]; 4-HPR 10 μM alone, +24 h): modestly increased
- recommended 'practical' dose for Phase II studies [28]: 1800 mg/m^2/day
- toxicity to normal and non-malignant cells [29]: minimally toxic
- levels of 4-HPR in plasma and tissues [30]: high, sustained levels
- reduction in premalignant oral lesions (leukoplakia) [31]: 30%
- 4-HPR concentrations that are cytotoxic [32]: 1 to 12 µM
- 4-HPR cytotoxicity ([11]; all six tested ALL cell lines in vitro): multi-log cytotoxicity
